The values below come from paper PMC2957478 (Bioorganic & medicinal chemistry letters, 2009).

The assay addresses PAI-1 (Homo sapiens, UniProt P05121). To be noted: for inhibitory activity towards PAI-1 (in words): in vitro.

The structures appear in SMILES notation.

PAI-1, sequence (P05121 24-402, species assumed): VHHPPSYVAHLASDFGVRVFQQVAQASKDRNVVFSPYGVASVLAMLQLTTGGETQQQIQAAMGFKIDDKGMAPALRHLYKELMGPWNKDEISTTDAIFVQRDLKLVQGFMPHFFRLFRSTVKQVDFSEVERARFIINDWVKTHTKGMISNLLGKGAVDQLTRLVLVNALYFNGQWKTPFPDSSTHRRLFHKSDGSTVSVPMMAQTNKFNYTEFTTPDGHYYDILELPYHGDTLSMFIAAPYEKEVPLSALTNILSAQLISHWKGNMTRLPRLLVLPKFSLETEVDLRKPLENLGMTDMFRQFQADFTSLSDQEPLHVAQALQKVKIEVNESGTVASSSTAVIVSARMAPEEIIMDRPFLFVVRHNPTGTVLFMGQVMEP

`CCN(CCN(CC)S(=O)(=O)c1cc(O)ccc1O)S(=O)(=O)c1cc(O)ccc1O` [compound 7]: the “inhibitory activity towards PAI-1 (in words)” value is “lacked significant potency towards PAI-1”.

On to `O=S(=O)(c1ccc(O)c(O)c1)N1CCN(S(=O)(=O)c2ccc(O)c(O)c2)CC1` [compound 4], for which the “inhibitory activity towards PAI-1 (in words)” value is “lacked significant inhibitory activity towards PAI-1”.

With `CCN(CCN(CC)S(=O)(=O)c1cc(F)c(O)c(F)c1)S(=O)(=O)c1cc(F)c(O)c(F)c1` [compound 13, bis-3,5-difluoro-4-hydroxybenzenesulfonamide], the “fold less potent against PAI-1 than the 3,4-dihydroxy version (3b)” value (ratio of IC50 values vs 3b) was “roughly 15 fold”.

On to `CCN(CCN(CC)S(=O)(=O)c1ccc(O)c(O)c1)S(=O)(=O)c1ccc(O)c(O)c1` [3b], for which the “increase in inhibitor potency against PAI-1 compared to the non-alkylated version 3a” value (ratio of IC50 values vs 3a) was “about 55 fold”.
